Experimental data from patent publication US10106580B2, “Enopeptins, uses thereof, and methods of synthesis thereto” (Brown University, priority 2011, dated 2018).
In brackets after ≈: the same amount, converted by molar mass. Numbered stars: 1 amine (or outer) side, 2 acyl side, 3 side chain; on linkers, the order of the positions; unused ones are H or OH. Bridge positions count the residues as written; N and C are the ends. Square brackets hold non-standard residues; d marks the D form. Peptide text beside a SMILES is read from it. * marks the point of attachment. Phe(3-F) = N[C@@H](Cc1cccc(F)c1)C(=O)O; X2 = CC1CCN([*:1])[C@@H](C(=O)[*:2])C1; X1 = CC1CCN([*:1])[C@H](C(=O)[*:2])C1; X3 = CCC(CC)(C(=O)[*:2])N(C)[*:1]; Heptenoyl(2E) = CCCC/C=C/C(=O)*; NMeAc6c = CNC1(C(=O)O)CCCCC1; NMeAc5c = CNC1(C(=O)O)CCCC1; NMeAc4c = CNC1(C(=O)O)CCC1

How the values were obtained:
[1] = tested on: Methicillin-susceptible S. aureus (ATCC 35556); assay: Broth dilution MIC/MBC vs methicillin-susceptible S. aureus; assay type: cell-based, Staphylococcus aureus; conditions: for MIC / MBC: Staphylococcus aureus, ATCC 35556 / MSSA, MSSA (ATCC 35556); for MBC: 99.9% kill after 24 h
Text: (§1) The naturally occurring enopeptins and the synthetic derivative ADEP 4 are reported to have strong antibacterial activity (see, e.g., Hinzen et al., Chem Med Chem 2006, 1, 689). Broth dilution assays were used to determine the MICs of the acyldepsipeptide derivatives 10a-h against both ATCC strains and clinical isolates of S. epidermis, S. aureus, and Enterococci obtained from patients of the Veterans Affairs Medical Center in Providence, R.I. Clinical isolates were included to gain a better indication of the potential of these new antibacterial agents (see, e.g., Clinical and Laboratory Standard Institute (CLSI) Methods for dilution antimicrobial susceptibility tests for bacteria that grow aerobically M07-A8; CLSI 8th ed., Wayne, Pa., 2009; Clinical Laboratory Standards Institute (CLSI) Performance standards for antimicrobial susceptibility testing M100-S19. CLSI 19th informational suppl., Wayne, Pa. 2009). In the interest of assessing the cell-killing ability of these compounds, the minimal bactericidal concentrations (MBC) of the compounds was also determined against the aformentioned strains. The MIC was defined as the lowest concentration of an antimicrobial agent visually inhibiting more than 99% of the colonies.
(§2) Minimum inhibitory concentrations (MIC) were determined in duplicate using methods outlined by The Clinical and Laboratory Standards Institute. Compounds were dissolved in DMSO and fresh cation-adjusted Mueller-Hinton broth (SMHB; Difco Laboratories, Sparks, Md., USA; 25 μg/mL calcium and 12.5 μg/mL magnesium) was used to dilute antimicrobial agents in a serial 2-fold schedule. Colony counts for the inoculum verification was determined using Tryptic Soy Agar plates (TSA, Difco, Becton Dickinson Co., Sparks, Md., USA). Following incubation, 100 μL of broth was subcultured onto TSA for MBC determination. MIC and MBC determination can be found in Table 2 and 3. Control isolates were obtained from the American Type Culture Collection (ATCC) and were as follows: Methicillin-resistant S. epidermidis (MRSE ATCC 35984); MSSA (ATCC 35556) and, VRE (ATCC 2030).

[2] = tested on: Methicillin-resistant S. aureus (clinical isolate from blood); assay: Broth dilution MIC/MBC vs methicillin-resistant S. aureus; assay type: cell-based; conditions: Staphylococcus aureus, MRSA (clinical isolate from blood); for MBC: 99.9% kill after 24 h
Text: as §1, §2

[3] = tested on: Enterococcus faecalis (ATCC 29212); assay: Broth dilution MIC/MBC vs E. faecalis ATCC strain; assay type: cell-based; conditions: ATCC29212, EF^1: E. faecalis (ATCC 29212)
Text: as §1, §2

[4] = tested on: Enterococcus faecalis (clinical isolate from rectal swab); assay: Broth dilution MIC/MBC vs E. faecalis clinical isolate; assay type: cell-based; conditions: EF^2: E. faecalis (clinical isolate from rectal swab)
Text: as §1, §2

[5] = tested on: Vancomycin-resistant Enterococcus faecium (clinical isolate obtained from tissue); assay: Broth dilution MIC/MBC vs vancomycin-resistant E. faecium; assay type: cell-based; conditions: VRE
Text: as §1, §2

[6] = tested on: Vancomycin-resistant Enterococcus faecalis (clinical isolate from rectal swab); assay: Broth dilution MIC/MBC vs vancomycin-resistant E. faecalis; assay type: cell-based; conditions: VRE
Text: as §1, §2

[7] = tested on: Staphylococcus epidermis (ATCC 25984); assay: Broth dilution MIC/MBC vs Staphylococcus epidermis; assay type: cell-based; conditions: ATCC25984
Text: as §1, with “The MIC was defined as the lowest concentration of an antimicrobial agent visually inhibiting more than 99% of the colonies.” left out
(§3) Minimum inhibitory concentrations (MIC) were determined in duplicate using methods outlined by The Clinical and Laboratory Standards Institute. […] Colony counts for the inoculum verification was determined using Tryptic Soy Agar plates (TSA, Difco, Becton Dickinson Co., Sparks, Md., USA). […]

S. aureus strains = assay: Antibacterial activity vs S. aureus strains, stated in words; assay type: cell-based, Staphylococcus aureus
Text: as §1, with “The MIC was defined as the lowest concentration of an antimicrobial agent visually inhibiting more than 99% of the colonies.” left out
as §3

[8] = tested on: E. faecalis and vancomycin-resistant E. faecium; assay: Antibacterial activity vs panel of pathogenic Enterococci, stated in words; assay type: cell-based; conditions: against E. faecalis and vancomycin-resistant E. faecium
Text: as §1, with “The MIC was defined as the lowest concentration of an antimicrobial agent visually inhibiting more than 99% of the colonies.” left out
as §3

Row | SMILES | MIC [1] [µg/mL] | MBC [1] [µg/mL] | MIC [2] [µg/mL] | MBC [2] [µg/mL] | MBC [3] [µg/mL] | MIC [3] [µg/mL] | MBC [4] [µg/mL] | MIC [4] [µg/mL] | MBC [5] [µg/mL] | MIC [5] [µg/mL] | MBC [6] [µg/mL] | MIC [6] [µg/mL] | MBC [7] [µg/mL] | MIC [7] [µg/mL] | antibacterial activity (S. aureus strains) | antibacterial activity compared with compound 10a ([1]; against MSSA, in words) | antibacterial activity compared with compound 10a [8]
1 | CCCC/C=C/C(=O)N[C@@H](Cc1cccc(F)c1)C(=O)N[C@H]1COC(=O)[C@@H]2CCCN2C(=O)[C@H](C)NC(=O)[C@@H]2CCCCN2C(=O)[C@@H]2CCCN2C1=O [Compound 10a] | 1.25 (≈ 1.69 µM) | 1.25 (≈ 1.69 µM) | 1.25 (≈ 1.69 µM) | 1.25 (≈ 1.69 µM) | 1.25 (≈ 1.69 µM) | 0.16 (≈ 0.217 µM) | 0.04 (≈ 0.0541 µM) | 0.04 (≈ 0.0541 µM) | 0.08 (≈ 0.108 µM) | 0.08 (≈ 0.108 µM) | 0.04 (≈ 0.0541 µM) | 0.04 (≈ 0.0541 µM) | 1.25 (≈ 1.69 µM) | 1.25 (≈ 1.69 µM) | exhibited the expected antibacterial activity |  | 
2 | CCCC/C=C/C(=O)N[C@@H](Cc1cccc(F)c1)C(=O)N[C@H]1COC(=O)[C@@H]2CCCN2C(=O)[C@H](C)NC(=O)[C@H]2CCCCN2C(=O)[C@@H]2CCCN2C1=O [Compound 10b] | > 312 | > 312 | > 312 | > 312 |  |  |  |  |  |  |  |  |  |  |  |  | 
3 | CCCC/C=C/C(=O)N[C@@H](Cc1cccc(F)c1)C(=O)N[C@H]1COC(=O)[C@@H]2CCCN2C(=O)[C@H](C)NC(=O)[C@@H]2CC(C)CCN2C(=O)[C@@H]2CCCN2C1=O (some centres unmarked) [Compound 10c] ({Heptenoyl(2E)}-[Phe(3-F)]SP[X1]AP; ester 2-C) | 0.6 (≈ 0.797 µM) | 0.6 (≈ 0.797 µM) | 0.6 (≈ 0.797 µM) | 2.4 (≈ 3.19 µM) | 0.08 (≈ 0.106 µM) | 0.04 (≈ 0.0531 µM) | 0.04 (≈ 0.0531 µM) | 0.02 (≈ 0.0266 µM) | 0.08 (≈ 0.106 µM) | 0.04 (≈ 0.0531 µM) | 0.04 (≈ 0.0531 µM) | 0.04 (≈ 0.0531 µM) |  |  |  | better activity than compound 10a | more potent activity
4 | CCCC/C=C/C(=O)N[C@@H](Cc1cccc(F)c1)C(=O)N[C@H]1COC(=O)[C@@H]2CCCN2C(=O)[C@H](C)NC(=O)[C@H]2CC(C)CCN2C(=O)[C@@H]2CCCN2C1=O (some centres unmarked) [Compound 10d] ({Heptenoyl(2E)}-[Phe(3-F)]SP[X2]AP; ester 2-C) | > 156 | > 156 | > 156 | 0.156 (≈ 0.207 µM) |  |  |  |  |  |  |  |  |  |  |  |  | 
5 | CCCC/C=C/C(=O)N[C@@H](Cc1cccc(F)c1)C(=O)N[C@H]1COC(=O)[C@@H]2CCCN2C(=O)[C@H](C)NC(=O)C(CC)(CC)N(C)C(=O)[C@@H]2CCCN2C1=O [Compound 10e] ({Heptenoyl(2E)}-[Phe(3-F)]SP[X3]AP; ester 2-C) | 78.1 (≈ 103 µM) | > 312 | > 312 | > 312 |  |  |  |  |  |  |  |  |  |  |  |  | 
6 | CCCC/C=C/C(=O)N[C@@H](Cc1cccc(F)c1)C(=O)N[C@H]1COC(=O)[C@@H]2CCCN2C(=O)[C@H](C)NC(=O)C2(CCC2)N(C)C(=O)[C@@H]2CCCN2C1=O [Compound 10f] ({Heptenoyl(2E)}-[Phe(3-F)]SP[NMeAc4c]AP; ester 2-C) | 312 (≈ 422 µM) | > 312 | > 312 | > 312 |  |  |  |  |  |  |  |  |  |  |  |  | 
7 | CCCC/C=C/C(=O)N[C@@H](Cc1cccc(F)c1)C(=O)N[C@H]1COC(=O)[C@@H]2CCCN2C(=O)[C@H](C)NC(=O)C2(CCCC2)N(C)C(=O)[C@@H]2CCCN2C1=O [Compound 10g] ({Heptenoyl(2E)}-[Phe(3-F)]SP[NMeAc5c]AP; ester 2-C) | 39.1 (≈ 51.9 µM) | > 312 | > 312 | > 312 |  |  |  |  |  |  |  |  |  |  |  |  | 
8 | CCCC/C=C/C(=O)N[C@@H](Cc1cccc(F)c1)C(=O)N[C@H]1COC(=O)[C@@H]2CCCN2C(=O)[C@H](C)NC(=O)C2(CCCCC2)N(C)C(=O)[C@@H]2CCCN2C1=O [Compound 10h] ({Heptenoyl(2E)}-[Phe(3-F)]SP[NMeAc6c]AP; ester 2-C) | 39.1 (≈ 51 µM) | > 312 | > 312 | > 312 |  |  |  |  |  |  |  |  |  |  |  |  | 
